The NIST ThermoML archive (doi:10.1021/je3007666)
Numbers after ± are expanded uncertainties.

Assay: relative permittivity at zero frequency (dimensionless); xn = mol fraction of the nth substance listed
Details: 100 kPa, Liquid, Dielectrometer

CC(C)(C)O [2-methylpropan-2-ol] + CCCCO
relative permittivity at zero frequency
Details | 288.15 K | 293.15 K | 298.15 K | 303.15 K | 308.15 K
x1 = 0.0501 | 18.96 ± 0.06 | 18.21 ± 0.06 | 17.49 ± 0.06 | 16.81 ± 0.06 | 16.12 ± 0.06
x1 = 0.1012 | 18.93 ± 0.06 | 18.16 ± 0.06 | 17.42 ± 0.06 | 16.68 ± 0.06 | 15.97 ± 0.06
x1 = 0.1503 | 18.85 ± 0.06 | 18.04 ± 0.06 | 17.29 ± 0.06 | 16.53 ± 0.06 | 15.81 ± 0.06
x1 = 0.2003 | 18.75 ± 0.06 | 17.92 ± 0.06 | 17.15 ± 0.06 | 16.37 ± 0.06 | 15.62 ± 0.06
x1 = 0.2497 | 18.61 ± 0.06 | 17.79 ± 0.06 | 16.99 ± 0.06 | 16.19 ± 0.06 | 15.44 ± 0.06
x1 = 0.299 | 18.48 ± 0.06 | 17.63 ± 0.06 | 16.85 ± 0.06 | 16.01 ± 0.06 | 15.25 ± 0.06
x1 = 0.349 | 18.36 ± 0.06 | 17.5 ± 0.06 | 16.69 ± 0.06 | 15.83 ± 0.06 | 15.07 ± 0.06
x1 = 0.3993 | 18.25 ± 0.06 | 17.35 ± 0.06 | 16.53 ± 0.06 | 15.65 ± 0.06 | 14.87 ± 0.06
x1 = 0.4505 | 18.13 ± 0.06 | 17.22 ± 0.06 | 16.38 ± 0.06 | 15.45 ± 0.06 | 14.63 ± 0.06
x1 = 0.5001 | 18.01 ± 0.06 | 17.06 ± 0.06 | 16.19 ± 0.06 | 15.25 ± 0.06 | 14.42 ± 0.06
x1 = 0.5511 | 17.89 ± 0.06 | 16.91 ± 0.06 | 16.01 ± 0.06 | 15.02 ± 0.06 | 14.15 ± 0.06
x1 = 0.5998 | 17.74 ± 0.06 | 16.73 ± 0.06 | 15.82 ± 0.06 | 14.79 ± 0.06 | 13.89 ± 0.06
x1 = 0.649 | 17.6 ± 0.06 | 16.54 ± 0.06 | 15.58 ± 0.06 | 14.51 ± 0.06 | 13.59 ± 0.06
x1 = 0.7001 | 17.39 ± 0.06 | 16.31 ± 0.06 | 15.32 ± 0.06 | 14.21 ± 0.06 | 13.25 ± 0.06
x1 = 0.7503 | 17.15 ± 0.06 | 16.03 ± 0.06 | 15 ± 0.06 | 13.88 ± 0.06 | 12.89 ± 0.06
x1 = 0.8003 | 16.84 ± 0.06 | 15.7 ± 0.06 | 14.63 ± 0.06 | 13.48 ± 0.06 | 12.49 ± 0.06
x1 = 0.8497 | 16.45 ± 0.06 | 15.26 ± 0.06 | 14.21 ± 0.06 | 13.03 ± 0.06 | 12.04 ± 0.06
x1 = 0.899 | 15.96 ± 0.06 | 14.77 ± 0.06 | 13.71 ± 0.06 | 12.53 ± 0.06 | 11.55 ± 0.06
x1 = 0.95 | 15.29 ± 0.06 | 14.15 ± 0.06 | 13.15 ± 0.06 | 11.97 ± 0.06 | 11 ± 0.06
x1 = 1 | 14.49 ± 0.06 | 13.38 ± 0.06 | 12.49 ± 0.06 | 11.34 ± 0.06 | 10.4 ± 0.06
